From US10076519B2 (CYTOKINETICS, INC., priority 2010, dated 2018) come the findings set out here.

The subject of the first assay is rabbit skeletal myofibrils (fast skeletal myofibrils). The experiment in a line: Activation of fast skeletal myofibrils (PUMA assay, PK/LDH-coupled ATPase at pCa25). The following applies: AC1.4 determined according to the procedure of Example 39; reported as class symbols. The format is biochemical. In short, it runs like this:
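ATPase activity of Triton-washed rabbit skeletal myofibrils, roughly 90% fast fibres, tracked by NADH loss at 340 nm through a PK/LDH-coupled ADP-regenerating system. Calcium set to 25% of maximal activity (pCa25), in PIPES 12 mM pH 6.8 with 2 mM MgCl2 and 1 mM DTT; AC1.4 reported.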
With `CC(C)(CNc1ccc(C2=CCNCC2)nn1)c1ccc(F)cc1` [[2-(4-fluorophenyl)-2-methylpropyl](6-(4-1,2,5,6-tetrahydropyridyl)pyridazin-3-yl)amine], the “Mean AC1.4” value was “B (B=1-10 uM)”.

For `CC(C)(CNc1ccc(-c2cccc(C(N)=O)c2)nn1)c1cccc(F)c1` [3-(6-{[2-(3-fluorophenyl)-2-methylpropyl]amino}pyridazin-3-yl)benzamide], the “Mean AC1.4” value is given as “A (A=<1 uM)”.

For the molecule `CC(C)(CNc1ccc(C(=O)NCC2CCC(=O)N2)nn1)c1ccc(F)cc1` (centres unmarked) [(6-{[2-(4-fluorophenyl)-2-methylpropyl]amino}pyridazin-3-yl)-N-[(5-oxopyrrolidin-2-yl)methyl]carboxamide], the “Mean AC1.4” value is on record as “C (C=10-20 uM)”.

As for `CC(C)(O)c1n[nH]c2ccc(-c3ccc(NCC(C)(C)c4ccc(F)cc4)nn3)cc12` [2-[5-(6-{[2-(4-fluorophenyl)-2-methylpropyl]amino}pyridazin-3-yl)-1H-indazol-3-yl]propan-2-ol], the “Mean AC1.4” value was “B (B=1-10 uM)”.

In the case of `CC(C)(CNc1ccc(-c2cccc(N)n2)nn1)c1ccc(F)cc1` [[6-(6-amino(2-pyridyl))pyridazin-3-yl][2-(4-fluorophenyl)-2-methylpropyl]amine], the “Mean AC1.4” value is “B (B=1-10 uM)”.

Consider `CS(=O)(=O)N1CC(CNc2ccc(-c3cccc(C(N)=O)c3)nn2)(c2ncccc2F)C1` [3-[6-({[3-(3-fluoro(2-pyridyl))-1-(methylsulfonyl)azetidin-3-yl]methyl}amino)pyridazin-3-yl]benzamide], for which the “Mean AC1.4” value is reported as “D (D=>20 uM)”.

Regarding `CC(C)(CNc1ccc(CNS(C)(=O)=O)nn1)c1ccc(F)cc1` [[(6-{[2-(4-fluorophenyl)-2-methylpropyl]amino}pyridazin-3-yl)methyl](methylsulfonyl)amine], the “Mean AC1.4” value is “B (B=1-10 uM)”.

For the molecule `CN1CCN(C(=O)c2ccc(NCC(C)(C)c3ccc(F)cc3)nn2)CC1` [6-{[2-(4-fluorophenyl)-2-methylpropyl]amino}pyridazin-3-yl 4-methylpiperazinyl ketone], the “Mean AC1.4” value was “D (D=>20 uM)”.

Turning to `NC(=O)c1ccc(-c2ccc(NCC3(c4ncccc4F)CCC3)nn2)c(F)c1`, the “Mean AC1.4” value is “B (B=1-10 uM)”.

On to `CC(C)(CNc1ccc(-c2cnc3cc[nH]c3c2)nn1)c1ccc(F)cc1` [[2-(4-fluorophenyl)-2-methylpropyl](6-pyrrolo[3,2-b]pyridin-6-ylpyridazin-3-yl)amine], for which the “Mean AC1.4” value is “A (A=<1 uM)”.

`OCC1(CNc2ccc(-c3ccc4[nH]ncc4c3)nn2)CCC1` [({[(6-(1H-indazol-5-yl)pyridazin-3-yl)amino]methyl}cyclobut-yl)methan-1-ol]: the “Mean AC1.4” value is “D (D=>20 uM)”.

`COc1ccc(C2(CNc3ccc(-c4ccc5[nH]ncc5c4)nn3)CCC2)nc1` [(6-(1H-indazol-5-yl)pyridazin-3-yl){[(5-methoxy(2-pyridyl))cyclobutyl]methyl}amine]: the “Mean AC1.4” value is reported as “B (B=1-10 uM)”.

Regarding `NC(=O)c1cccc(-c2ccc(NCCc3ccc(Cl)cc3)nn2)c1`, the “Mean AC1.4” value is reported as “D (D=>20 uM)”.

Turning to `CCCC(CNc1ccc(-c2cccc(C(N)=O)c2)nn1)c1ccccc1Cl` (centres unmarked), the “Mean AC1.4” value was “B (B=1-10 uM)”.

Consider `CC(CNc1ccc(-c2cccc(C(N)=O)c2)nn1)N1CCCCC1=O` (centres unmarked), for which the “Mean AC1.4” value was “D (D=>20 uM)”.

As for `Fc1ccc(C2(CNc3ccc(-c4ccc5cn[nH]c5c4)nn3)CCC2)cc1` [(6-(1H-indazol-6-yl)pyridazin-3-yl){[(4-fluorophenyl)cyclo-butyl]methyl}amine], the “Mean AC1.4” value is “A (A=<1 uM)”.

Consider `CC(C)(CNc1ccc(-c2cccc(C(=O)N3CCOCC3)c2)nn1)c1ccc(F)cc1` [3-(6-{[2-(4-fluorophenyl)-2-methylpropyl]amino}pyridazin-3-yl)phenyl morpholin-4-yl ketone], for which the “Mean AC1.4” value was “B (B=1-10 uM)”.

Still in this assay, the particulars now being: median AC1.4 class, procedure of Example 39.
Take `C=Cc1ccc(NC2(c3ncccc3F)CCC2)nn1` [[(3-fluoro(2-pyridyl))cyclobutyl](6-vinylpyridazin-3-yl)amine]: the “Mean AC1.4” value was “D (D=>20 uM)”.

Regarding `CC(C)(CNc1ccc(-c2cc(C(N)=O)ccc2F)nn1)c1ncccc1Cl` [3-(6-{[2-(3-chloro(2-pyridyl))-2-methylpropyl]amino}pyridazin-3-yl)-4-fluorobenzamide], the “Mean AC1.4” value is on record as “A (A=<1 uM)”.

In the case of `NC(=O)C1CN=C(c2ccc(NCC3(c4ncccc4F)CCC3)nn2)N1` (centres unmarked), the “Mean AC1.4” value was “D (D=>20 uM)”.

On to `O=C(c1cnc(-c2ccc(NCC3(c4ncccc4F)CCC3)nn2)s1)N1CCC(O)C1` (centres unmarked) [2-[6-({[(3-fluoro(2-pyridyl))cyclobutyl]methyl}ami-no)pyridazin-3-yl](1,3-thiazol-5-yl) 3-hydroxypyrrolidinyl ketone], for which the “Mean AC1.4” value was “C (C=10-20 uM)”.

On to `Cc1cc(-c2ccc(NC3(c4ccc(F)cc4)CCC3)nn2)ccn1` [[(4-fluorophenyl)cyclobutyl][6-(2-methyl(4-pyridyl))pyridazin-3-yl]amine], for which the “Mean AC1.4” value was “B (B=1-10 uM)”.

Regarding `NC(=O)c1cc(-c2ccc(NCC3(c4ncccc4F)CCC3)nn2)ncn1` [6-[6-({[(3-fluoro-2-pyridyl)cyclobutyl]methyl}ami-no)pyridazin-3-yl]pyrimidine-4-carboxamide], the “Mean AC1.4” value is “B (B=1-10 uM)”.

As to `Fc1ccc(C2(Nc3ccc(-c4ccc5[nH]ncc5c4)nn3)CCC2)cc1` [(6-(1H-indazol-5-yl)pyridazin-3-yl)[(4-fluorophenyl)cyclobutyl]amine], the “Mean AC1.4” value is “A (A=<1 uM)”.

Regarding `CC(C)(Nc1ccc(-c2cccc(C(N)=O)c2)nn1)c1ccc(F)cc1` [3-(6-{[1-(4-fluorophenyl)-isopropyl]amino}pyridazin-3-yl)benzamide], the “Mean AC1.4” value is reported as “B (B=1-10 uM)”.

“(2S)-2-amino-N-({2-[6-({[(3- fluoro(2- pyridyl))cyclobutyl]methyl}ami- no)pyridazin-3-yl](1,3-thiazol-5- yl)}methyl)-3-hydroxy-3- methylbutanamide”: the “Mean AC1.4” value is reported as “A (A=<1 uM)”.

Take `N#Cc1ccc(F)c(-c2ccc(NC[C@]3(c4ncccc4F)C[C@H](F)C3)nn2)c1` [4-fluoro-3-[6-({[3-fluoro-1-(3-fluoro(2-pyridyl))cyclobutyl]methyl}ami-no)pyridazin-3-yl]benzenecarbonitrile]: the “Mean AC1.4” value was “B (B=1-10 uM)”.

Take `NC(=O)c1ccc(F)c(-c2ccc(NC3(c4ncccc4F)CCC3)nn2)c1`: the “Mean AC1.4” value is listed as “B (B=1-10 uM)”.

Take `CCOC(=O)c1cc(-c2ccc(NC[C@]3(c4ncccc4F)C[C@H](F)C3)nn2)ccc1F` [ethyl 2-fluoro-5-[6-({[3-fluoro-1-(3-fluoro(2-pyridyl))cyclobutyl]methyl}ami-no)pyridazin-3-yl]benzoate]: the “Mean AC1.4” value was “C (C=10-20 uM)”.

Take `O=C(NCCO)c1cnc(-c2ccc(NCC3(c4ncccc4F)CCC3)nn2)s1` [{2-[6-({[(3-fluoro(2-pyridyl))cyclobutyl]methyl}ami-no)pyridazin-3-yl](1,3-thiazol-5-yl)}-N-(2-hydroxyethyl)carboxamide]: the “Mean AC1.4” value is “A (A=<1 uM)”.

Take `NC(=O)c1cc(-c2ccc(NCC3(c4ncccc4F)CCC3)nn2)ccc1O`: the “Mean AC1.4” value is “A (A=<1 uM)”.

`CC(C)(Nc1ccc(-c2cc(C(N)=O)ccc2F)nn1)c1ccc(F)cc1` [4-fluoro-3-(6-{[1-(4-fluorophenyl)-isopropyl]amino}pyridazin-3-yl)benzamide]: the “Mean AC1.4” value is on record as “A (A=<1 uM)”.

As for `CCOC(=O)/C=C/c1ccc(NCC2(c3ncccc3F)CCC2)nn1`, the “Mean AC1.4” value is listed as “D (D=>20 uM)”.

In the case of `O=c1[nH]nc(-c2cccc(-c3ccc(NCC4(c5ncccc5F)CCC4)nn3)c2)[nH]1` [3-{3-[6-({[(3-fluoro-2-pyridyl)cyclobutyl]methyl}ami-no)pyridazin-3-yl]phenyl}-1,2,4-triazolin-5-one], the “Mean AC1.4” value is reported as “B (B=1-10 uM)”.

Take `O=C(NC[C@@H](O)CO)c1ccc(F)c(-c2ccc(NC[C@]3(c4ncccc4F)C[C@H](F)C3)nn2)c1` [N-((2R)-2,3-dihydroxypropyl){4-fluoro-3-[6-({[3-fluoro-1-(3-fluoro(2-pyridyl))cyclobutyl]methyl}ami-no)pyridazin-3-yl]phenyl}carboxamide]: the “Mean AC1.4” value is listed as “A (A=<1 uM)”.

`O=C1Cc2cc(-c3ccc(NCC4(c5ncccc5F)CCC4)nn3)ccc2N1`: the “Mean AC1.4” value is “B (B=1-10 uM)”.

Still in this assay, the particulars now being: median AC1.4 reported as class; procedure of Example 39.
Regarding `O=C(N[C@H]1CCNC1=O)c1ccc(NCC2(c3ncccc3F)CCC2)nn1` [N-((3S)-2-oxopyrrolidin-3-yl)[6-({[(3-fluoro(2-pyridyl))cyclobutyl]methyl}ami-no)pyridazin-3-yl]carboxamide], the “Mean AC1.4” value is on record as “D (D=>20 uM)”.

On to `CC(C)(N)C(=O)NCc1cnc(-c2ccc(NCC(C)(C)c3ncccc3Cl)nn2)s1` [2-amino-N-{[2-(6-{[2-(3-chloro(2-pyridyl))-2-methylpropyl]amino}pyridazin-3-yl)(1,3-thiazol-5-yl)]methyl}-2-methylpropanamide], for which the “Mean AC1.4” value was “A (A=<1 uM)”.

As to `NC(=O)Cc1csc(NC(=O)c2ccc(NCC3(c4ncccc4F)CCC3)nn2)n1` [N-[4-(carbamoylmethyl)(1,3-thiazol-2-yl)][6-({[(3-fluoro(2-pyridyl))cyclobutyl]methyl}ami-no)pyridazin-3-yl]carboxamide], the “Mean AC1.4” value is given as “A (A=<1 uM)”.

With `CCOC(=O)c1coc(NC(=O)c2ccc(NCC3(c4ncccc4F)CCC3)nn2)n1` [ethyl 2-{[6-({[(3-fluoro-2-pyridyl)cyclobutyl]methyl}ami-no)pyridazin-3-yl]carbonylamino}-1,3-oxazole-4-carboxylate], the “Mean AC1.4” value was “D (D=>20 uM)”.

For `O=C(NCC(F)F)c1ccc(F)c(-c2ccc(NC[C@]3(c4ncccc4F)C[C@H](F)C3)nn2)c1` [N-(2,2-difluoroethyl){4-fluoro-3-[6-({[3-fluoro-1-(3-fluoro(2-pyridyl))cyclobutyl]methyl}ami-no)pyridazin-3-yl]phenyl}carboxamide], the “Mean AC1.4” value is listed as “B (B=1-10 uM)”.
